Reference: ChEMBL document CHEMBL1123912, “Analogues of the cytostatic and antimitogenic agents chlamydocin and HC-toxin: synthesis and biological activity of chloromethyl ketone and diazomethyl ketone functionalized cyclic tetrapeptides” (J Med Chem, 1987)
Converted amounts (≈) assume the structure as drawn.

The compounds below were run on P815 (assay: Compound was evaluated for the inhibition of cell growth in mouse P-815 mastocytoma cells.). Conditions: read-out: ED50 (the source's name).
Assay type: functional
Work on `CC1(C)NC(=O)[C@H](CCCCCC(=O)[C@H]2CO2)NC(=O)[C@H]2CCCN2C(=O)[C@H](Cc2ccccc2)NC1=O` [CHLAMYDOCIN] yielded an EC50 of 0.00036 µg/mL (≈ 0.000684 µM).

Species: Mus musculus
Assay: Compound was evaluated for the inhibition of Con A (concanavalin A) stimulated murine thymocyte mitogenesis.
Assay type: functional
Conditions: not given
`C[C@@H]1NC(=O)[C@H](C)NC(=O)[C@@H]2CCCN2C(=O)[C@H](CCCCCC(=O)CCl)NC1=O` gave an IC50 of 0.04 µg/mL (≈ 0.0903 µM).
For `C[C@@H]1NC(=O)[C@H](C)NC(=O)[C@@H]2CCCN2C(=O)[C@H](CCCCCC(=O)C=[N+]=[N-])NC1=O`, the IC50 was over 2 µg/mL.
In the case of `C[C@@H]1NC(=O)[C@H](Cc2ccccc2)NC(=O)[C@@H]2CCCN2C(=O)[C@H](CCCCCC(=O)CCl)NC1=O`, the IC50 is reported as 0.1 µg/mL (≈ 0.193 µM).
`CC1(C)NC(=O)[C@H](CCCCCC(=O)CCl)NC(=O)[C@H]2CCCN2C(=O)[C@H](Cc2ccccc2)NC1=O` was tested, and the IC50 was 0.01 µg/mL (≈ 0.0188 µM).
Work on `CC1(C)NC(=O)[C@H](CCCCCC(=O)[C@H]2CO2)NC(=O)[C@H]2CCCN2C(=O)[C@H](Cc2ccccc2)NC1=O` [CHLAMYDOCIN] yielded an IC50 of 0.003 µg/mL (≈ 0.0057 µM).
